Where a name gives a salt, the structure may show the parent alone.
What was measured:
Test in all cases: normalized area under the dose-response curve (viability relative to DMSO control) (fraction); higher = less sensitive (more viable cells)
Conditions in all cases: exposure time not given
AMO1 (cancer type: MM) = tested on: AMO1 (cancer type: MM)
Method: (§1)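 25 myeloma and 15 non-Hodgkin lymphoma cell lines were exposed to each of 76 drugs as 7-point log dilutions (0.01 nM–10 µM) in duplicate. Viability was read with CellTiter-Glo and normalised to DMSO (0.1%) and staurosporine (10 µM) plate controls. Normalised AUC was calculated by the trapezoidal method relative to the negative control.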

EJM (cancer type: MM) = tested on: EJM (cancer type: MM)
Method: as §1

FR4 (cancer type: MM) = tested on: FR4 (cancer type: MM)
Method: as §1

[1] = tested on: Granta-519 (cancer type: Mantle)
Method: as §1

[2] = tested on: HuT 78 (cancer type: TCL)
Method: as §1

JJN3 (cancer type: MM) = tested on: JJN3 (cancer type: MM)
Method: as §1

[3] = tested on: JVM2 (cancer type: Mantle)
Method: as §1

[4] = tested on: JeKo-1 (cancer type: Mantle)
Method: as §1

KMS11 (cancer type: MM) = tested on: KMS11 (cancer type: MM)
Method: as §1

[5] = tested on: KMS12PE (cancer type: MM)
Method: as §1

KMS18 (cancer type: MM) = tested on: KMS18 (cancer type: MM)
Method: as §1

KMS26 (cancer type: MM) = tested on: KMS26 (cancer type: MM)
Method: as §1

[6] = tested on: KMS28BM (cancer type: MM)
Method: as §1

[7] = tested on: KMS28PE (cancer type: MM)
Method: as §1

KMS34 (cancer type: MM) = tested on: KMS34 (cancer type: MM)
Method: as §1

[8] = tested on: Karpas-299 (cancer type: TCL)
Method: as §1

L363 (cancer type: MM) = tested on: L363 (cancer type: MM)
Method: as §1

LP1 (cancer type: MM) = tested on: LP1 (cancer type: MM)
Method: as §1

MM1.R (cancer type: MM) = tested on: MM1.R (cancer type: MM)
Method: as §1

MM1.S (cancer type: MM) = tested on: MM1.S (cancer type: MM)
Method: as §1

[9] = tested on: Mino (cancer type: Mantle)
Method: as §1

My-La (cancer type: TCL) = tested on: My-La (cancer type: TCL)
Method: as §1

[10] = tested on: NCI-H929 (cancer type: MM)
Method: as §1

[11] = tested on: OCI-LY1 (cancer type: DLBCL)
Method: as §1

[12] = tested on: OCI-LY19 (cancer type: DLBCL)
Method: as §1

[13] = tested on: OCI-LY3 (cancer type: DLBCL)
Method: as §1

[14] = tested on: OCI-MY5 (cancer type: MM)
Method: as §1

[15] = tested on: OCI-MY5/CRBN (cancer type: MM)
Method: as §1

[16] = tested on: OCI-MY5/Vec (cancer type: MM)
Method: as §1

[17] = tested on: OCI-MY7 (cancer type: MM)
Method: as §1

OPM2 (cancer type: MM) = tested on: OPM2 (cancer type: MM)
Method: as §1

[18] = tested on: RPMI 8226 (cancer type: MM)
Method: as §1

SKMM2 (cancer type: MM) = tested on: SKMM2 (cancer type: MM)
Method: as §1

[19] = tested on: SR-786 (cancer type: TCL)
Method: as §1

[20] = tested on: SU-DHL1 (cancer type: TCL)
Method: as §1

[21] = tested on: SU-DHL2 (cancer type: DLBCL)
Method: as §1

[22] = tested on: SU-DHL6 (cancer type: DLBCL)
Method: as §1

Se-Ax (cancer type: TCL) = tested on: Se-Ax (cancer type: TCL)
Method: as §1

U266 (cancer type: MM) = tested on: U266 (cancer type: MM)
Method: as §1

XG2 (cancer type: MM) = tested on: XG2 (cancer type: MM)
Method: as §1

| Structure (SMILES) | normalized area under the dose-response curve (AMO1 (cancer type: MM)) | normalized area under the dose-response curve (EJM (cancer type: MM)) | normalized area under the dose-response curve (FR4 (cancer type: MM)) | normalized area under the dose-response curve [1] | normalized area under the dose-response curve [2] | normalized area under the dose-response curve (JJN3 (cancer type: MM)) | normalized area under the dose-response curve [3] | normalized area under the dose-response curve [4] | normalized area under the dose-response curve (KMS11 (cancer type: MM)) | normalized area under the dose-response curve [5] | normalized area under the dose-response curve (KMS18 (cancer type: MM)) | normalized area under the dose-response curve (KMS26 (cancer type: MM)) | normalized area under the dose-response curve [6] | normalized area under the dose-response curve [7] | normalized area under the dose-response curve (KMS34 (cancer type: MM)) | normalized area under the dose-response curve [8] | normalized area under the dose-response curve (L363 (cancer type: MM)) | normalized area under the dose-response curve (LP1 (cancer type: MM)) | normalized area under the dose-response curve (MM1.R (cancer type: MM)) | normalized area under the dose-response curve (MM1.S (cancer type: MM)) | normalized area under the dose-response curve [9] | normalized area under the dose-response curve (My-La (cancer type: TCL)) | normalized area under the dose-response curve [10] | normalized area under the dose-response curve [11] | normalized area under the dose-response curve [12] | normalized area under the dose-response curve [13] | normalized area under the dose-response curve [14] | normalized area under the dose-response curve [15] | normalized area under the dose-response curve [16] | normalized area under the dose-response curve [17] | normalized area under the dose-response curve (OPM2 (cancer type: MM)) | normalized area under the dose-response curve [18] | normalized area under the dose-response curve (SKMM2 (cancer type: MM)) | normalized area under the dose-response curve [19] | normalized area under the dose-response curve [20] | normalized area under the dose-response curve [21] | normalized area under the dose-response curve [22] | normalized area under the dose-response curve (Se-Ax (cancer type: TCL)) | normalized area under the dose-response curve (U266 (cancer type: MM)) | normalized area under the dose-response curve (XG2 (cancer type: MM)) |
| --- | --- | --- | --- | --- | --- | --- | --- | --- | --- | --- | --- | --- | --- | --- | --- | --- | --- | --- | --- | --- | --- | --- | --- | --- | --- | --- | --- | --- | --- | --- | --- | --- | --- | --- | --- | --- | --- | --- | --- | --- |
| Cc1cccc(/C=N/Nc2cc(N3CCOCC3)n3nc(-c4ccncc4)cc3n2)c1 [apy0201] | 0.415 | 0.769 | 0.578 | 0.93 | 0.57 | 0.311 | 0.831 | 0.681 | 0.508 | 0.41 | 0.756 | 0.688 | 0.822 | 0.736 | 0.269 | 0.648 | 0.516 | 0.81 | 0.69 | 0.65 | 0.709 | 0.885 | 0.43 | 0.655 | 0.634 | 0.863 | 0.447 | 0.867 | 0.794 | 0.65 | 0.504 | 0.706 | 0.826 | 0.601 | 0.682 | 0.897 | 0.77 | 0.673 | 0.564 | 0.511 |
| CC(=O)Nc1cccc(-n2c(=O)n(C3CC3)c(=O)c3c(Nc4ccc(I)cc4F)n(C)c(=O)c(C)c32)c1 [Trametinib] | 0.575 | 0.838 | 0.967 | 0.913 | 0.672 | 0.858 | 0.561 | 0.986 | 0.869 | 0.8 | 0.779 | 0.774 | 0.861 | 0.867 | 0.681 | 0.794 | 0.835 | 0.64 | 0.67 | 0.71 | 0.948 | 0.868 | 0.6 | 0.908 | 0.898 | 0.865 | 0.764 | 0.969 | 0.943 | 0.67 | 0.719 | 0.909 | 0.964 | 0.877 | 0.501 | 0.77 | 0.841 | 0.713 | 0.922 | 0.727 |
| CC(C)C[C@H](NC(=O)[C@H](CCc1ccccc1)NC(=O)CN1CCOCC1)C(=O)N[C@@H](Cc1ccccc1)C(=O)N[C@@H](CC(C)C)C(=O)[C@@]1(C)CO1 [Carfilzomib] | 0.0997 | 0.104 | 0.638 | 0.094 | 0.32 | 0.356 | 0.0748 | 0.0922 | 0.128 | 0.18 | 0.0656 | 0.0786 | 0.0754 | 0.11 | 0.147 | 0.25 | 0.095 | 0.225 | 0.07 | 0.11 | 0.0636 | 0.19 | 0.12 | 0.0418 | 0.0752 | 0.0311 | 0.105 | 0.0124 | 0.0171 | 0.11 | 0.187 | 0.285 | 0.264 | 0.25 | 0.157 | 0.0281 | 0.387 | 0.113 | 0.177 | 0.0918 |
| Cc1ccc(Nc2nccc(N(C)c3ccc4c(C)n(C)nc4c3)n2)cc1S(N)(=O)=O [Pazopanib hydrochloride] | 0.798 | 0.861 | 0.759 | 0.899 | 0.795 | 0.628 | 0.721 | 0.881 | 0.713 | 0.82 | 0.732 | 0.848 | 0.921 | 0.796 | 0.347 | 0.829 | 0.666 | 0.602 | 0.77 | 0.79 | 0.939 | 0.879 | 0.77 | 0.906 | 0.859 | 1 | 0.667 | 0.855 | 0.764 | 0.78 | 0.653 | 0.827 | 0.86 | 0.789 | 0.833 | 0.931 | 0.99 | 0.732 | 0.681 | 0.876 |
| Cc1ccc(-n2nc(C(C)(C)C)cc2NC(=O)Nc2ccc(OCCN3CCOCC3)c3ccccc23)cc1 [Doramapimod] | 0.842 | 0.872 | 0.932 | 0.938 | 0.812 | 0.726 | 0.687 | 1.04 | 0.782 | 0.89 | 0.926 | 0.787 | 0.887 | 0.842 | 0.737 | 0.916 | 0.801 | 0.87 | 0.88 | 0.8 | 0.97 | 0.907 | 0.87 | 0.999 | 0.645 | 0.9 | 0.693 | 0.961 | 0.916 | 0.89 | 0.834 | 0.917 | 0.969 | 0.919 | 0.737 | 0.901 | 0.858 | 0.736 | 0.634 | 0.806 |
| N[C@@H](Cc1ccc(N(CCCl)CCCl)cc1)C(=O)O [Melphalan hydrochloride] | 0.722 | 0.685 | 0.919 | 0.798 | 0.787 | 0.874 | 0.742 | 0.788 | 0.826 | 0.86 | 0.842 | 0.791 | 0.95 | 0.758 | 0.573 | 0.907 | 0.73 | 0.85 | 0.8 | 0.79 | 0.818 | 0.892 | 0.77 | 0.94 | 1.01 | 0.858 | 0.643 | 0.926 | 0.936 | 0.73 | 0.896 | 0.897 | 0.892 | 0.973 | 0.41 | 0.936 | 0.905 | 0.778 | 0.885 | 0.776 |
| C[C@@H]1C[C@H]2[C@@H]3CCC4=CC(=O)C=C[C@]4(C)[C@@]3(F)[C@@H](O)C[C@]2(C)[C@@]1(O)C(=O)CO [Dexamethasone] | 0.762 | 0.777 | 0.933 | 0.925 | 0.873 | 0.983 | 0.799 | 0.875 | 0.805 | 0.96 | 0.788 | 0.773 | 0.904 | 0.735 | 0.487 | 0.852 | 0.756 | 0.613 | 0.94 | 0.66 | 0.86 | 0.883 | 0.79 | 0.924 | 0.947 | 0.963 | 0.725 | 0.928 | 0.814 | 0.76 | 0.826 | 0.777 | 0.648 | 0.972 | 0.907 | 0.686 | 0.8 | 0.759 | 0.818 | 0.863 |
| Cc1cc(Nc2ncc(Cl)c(Nc3ccccc3S(=O)(=O)C(C)C)n2)c(OC(C)C)cc1C1CCNCC1 [Ceritinib] | 0.355 | 0.502 | 0.403 | 0.962 | 0.534 | 0.281 | 0.899 | 0.885 | 0.344 | 0.54 | 0.487 | 0.677 | 0.276 | 0.161 | 0.0994 | 0.61 | 0.352 | 0.365 | 0.29 | 0.32 | 0.837 | 0.828 | 0.42 | 0.966 | 0.85 | 0.813 | 0.261 | 0.622 | 0.539 | 0.63 | 0.193 | 0.303 | 0.348 | 0.657 | 0.0824 | 0.926 | 0.877 | 0.442 | 0.413 | 0.372 |

Reference: the supplement of paper PMC7214452
